Source: PMC3094488 (European journal of pharmacology, 2011)
Several values for one entry are separate records, joined by “and”; a condition that tells them apart may be missing. Equal entries are not always repeated.

Tests used:
CB1 receptors [1] = target: CB1 receptors (Rattus norvegicus, UniProt P20272); experiment: CB1 receptor internalization in HEK293 cells stably expressing CB1; assay type: cell-based; conditions: for plateau / maximal internalization in time course: 100 nM drug, up to 6 hours; for plateau / maximal internalization in time course / maximal internalization (Emax): mean ± S.E.M.; for maximal internalization (Emax) / EC50: 2 hour treatment; for maximal internalization (Emax): at 1 μM; for EC50: read-out: EC50 of CB1 internalization, mean (95% CI)
CB1 receptors [2] = target: T1, CB1 receptors (Mus musculus, UniProt P47746); experiment: Inhibition of EPSCs; assay type: cell-based; conditions: for maximal suppression of EPSC, % of baseline: at 1 μM, mean ± S.E.M.; for IC50: read-out: IC50 of EPSC suppression, autaptic hippocampal neurons, mean (95% CI)
CB1 receptors [3] = target: T1, CB1 receptors; conditions: at 1 μM; ref Atwood et al., 2010; cited from earlier work

T1 sequence (P47746 whole entry): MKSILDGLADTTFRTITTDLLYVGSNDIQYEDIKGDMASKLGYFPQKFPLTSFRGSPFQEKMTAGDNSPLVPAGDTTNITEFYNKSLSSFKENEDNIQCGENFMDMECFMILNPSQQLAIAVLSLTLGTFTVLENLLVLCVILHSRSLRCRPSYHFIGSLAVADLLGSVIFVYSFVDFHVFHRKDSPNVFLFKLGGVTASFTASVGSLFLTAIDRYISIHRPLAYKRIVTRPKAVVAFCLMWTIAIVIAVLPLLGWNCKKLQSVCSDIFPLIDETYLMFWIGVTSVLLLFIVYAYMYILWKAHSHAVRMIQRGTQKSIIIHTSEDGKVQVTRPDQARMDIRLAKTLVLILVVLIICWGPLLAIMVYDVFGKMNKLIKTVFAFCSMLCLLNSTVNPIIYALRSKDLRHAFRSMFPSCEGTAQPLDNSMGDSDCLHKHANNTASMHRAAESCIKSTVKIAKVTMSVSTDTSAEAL
CB1 receptors (Rattus norvegicus, UniProt P20272), sequence (P20272 whole entry): as the sequence (P47746 whole entry) above, with D95E counted along it

Row | SMILES | plateau / maximal internalization in time course (CB1 receptors [1]) | maximal internalization (Emax) (CB1 receptors [1]) | EC50 (CB1 receptors [1]) | maximal suppression of EPSC, % of baseline (CB1 receptors [2]) | IC50 (CB1 receptors [2]) | maximal decrease of EPSC magnitude (CB1 receptors [3])
1 | CCCCCCCC(C)(C)c1ccc([C@H]2CCC[C@@H](O)C2)c(O)c1 [CP47,497-C8] | 51.4 ± 2.2 % of basal surface levels | 52.7 ± 4.3 % of basal surface levels | 4.4 nM | 51.6 ± 8.0 % of baseline and 51.6 % of baseline | 15.4 nM | 
2 | CCCCCn1cc(C(=O)c2cccc3ccccc23)c2ccccc21 [JWH018] | 50.7 ± 2.6 % of basal surface levels | 45.2 ± 2.0 % of basal surface levels | 10.1 nM |  |  | 48.0%
3 | CCCCn1cc(C(=O)c2cccc3ccccc23)c2ccccc21 [JWH073] | 57.5 ± 3.1 % of basal surface levels | 61.2 ± 2.5 % of basal surface levels | 45.6 nM | 31.5 ± 4.0 % of baseline | 49.4 nM | 
4 | CCCCCCCC(C)(C)c1ccc([C@H]2CCC[C@@H](O)C2)c(O)c1 [cis-CP47,497-C8] | 48.4 ± 2.4 % of basal surface levels | 53.8 ± 2.4 % of basal surface levels | 1.9 nM |  |  | 
5 | CCCCCCCC(C)(C)c1ccc([C@@H]2CCC[C@@H](O)C2)c(O)c1 [trans-CP47,497-C8] | 47.7 ± 3.1 % of basal surface levels | 54.9 ± 3.7 % of basal surface levels | 2.7 nM |  |  | 
